From patent publication US4614746A, “5-fluorobenzonitrile derivatives for increasing the lean meat to fat ratio and/or enhancing the growth rate of warm-blooded animals” (American Cyanamid Company, priority 1985, dated 1986)

Key:
CFI female mice [1] = assay: Antilipogenic evaluation of test compounds - mouse study (fat pad and body weight, 12-day feeding); type: in vivo; conditions: 12 days
Protocol: CFI female mice from Carworth Farms are received when they are six-weeks old. They are housed ten to a cage in air-conditioned rooms (22° C. to 25° C.) with automatically-controlled lights, 14 hours on and ten hours off. The basal diet used in these studies is Purina Laboratory Chow (see description below) which is supplied ad libitum. The following is a description of the diet to which the growth-promoting compounds were added. Meat and bone meal, dried skimmed milk, wheat germ meal, fish meal, animal liver meal, dried beet pulp, ground extruded corn, ground oat groats, soybean meal, dehydrated alfalfa metal, cane molasses, animal fat preserved with BHA, vitamin B12 supplement, calcium pantothenate, choline chloride, folic acid, riboflavin supplement, brewer's dried yeast, thiamin, niacin, vitamin A supplement, D-activated plant sterol, vitamin E supplement, calcium carbonate, dicalcium phosphate, iodized salt, ferric ammonium citrate, iron oxide, manganous oxide, cobalt carbonate, copper oxide, zinc oxide. Water is also allowed ad libitum. Thirteen days after arrival, the mice are weighed in groups of ten and assigned at random to the different treatments. Each of the treatments is tested in three replicates, i.e., in three cages of ten mice each. There are ten cages of ten control mice each. Drugs are mixed in the diet at the dosage level indicated. Feed and water are offered ad libitum for a 12-day test period. Feed spilled is collected during the test period. At the end of the test period, the collected feed is weighed, and the mean feed consumption per cage of ten mice is determined for each treatment. The mice are weighed as a group of ten, and the weight gain determined. The mice are sacrificed by cervical dislocation. The right uterine fat pad of each mouse is removed. The fat pads for each cage of ten mice are weighed as a unit. Reduction in fat pad weights of animals is generally indicative of a reduction of total body fat of the treated animals.

CFI female mice [2] = assay: Antilipogenic evaluation of test compounds - mouse study (Example 6, procedure of Example 4); type: in vivo
Protocol: CFI female mice from Carworth Farms are received when they are six-weeks old. They are housed ten to a cage in air-conditioned rooms (22° C. to 25° C.) with automatically-controlled lights, 14 hours on and ten hours off. The basal diet used in these studies is Purina Laboratory Chow (see description below) which is supplied ad libitum.
Thirteen days after arrival, the mice are weighed in groups of ten and assigned at random to the different treatments. Each of the treatments is tested in three replicates, i.e., in three cages of ten mice each. There are ten cages of ten control mice each. Drugs are mixed in the diet at the dosage level indicated. Feed and water are offered ad libitum for a 12-day test period. Feed spilled is collected during the test period. At the end of the test period, the collected feed is weighed, and the mean feed consumption per cage of ten mice is determined for each treatment. The mice are weighed as a group of ten, and the weight gain determined. The mice are sacrificed by cervical dislocation. The right uterine fat pad of each mouse is removed. The fat pads for each cage of ten mice are weighed as a unit. Reduction in fat pad weights of animals is generally indicative of a reduction of total body fat of the treated animals.
Following the procedure of Example 4, the analogues of the compounds of the invention in the subject Application are evaluated as antilipogenic agents.

Compound | % Change in Body Weight vs controls (CFI female mice [1]; 50 ppm in diet) | % Reduction in Fat Pad Weight vs Controls (CFI female mice [1]; 50 ppm in diet) | % Change in Body Weight vs controls (CFI female mice [1]; 100 ppm in diet) | % Reduction in Fat Pad Weight vs Controls (CFI female mice [1]; 100 ppm in diet) | % Change in Body Weight vs controls (CFI female mice [1]; 200 ppm in diet) | % Reduction in Fat Pad Weight vs Controls (CFI female mice [1]; 200 ppm in diet) | % Change in Body Weight vs controls (CFI female mice [1]; second dose, not given) | % Reduction in Fat Pad Weight vs Controls (CFI female mice [1]; second dose, not given) | % Change in Body Weight vs controls (CFI female mice [1]; 3 ppm in diet) | % Change in Body Weight vs controls (CFI female mice [1]; 6 ppm in diet) | % Reduction in Fat Pad Weight vs Controls (CFI female mice [1]; 6 ppm in diet) | % Change in Body Weight vs controls (CFI female mice [1]; 12.5 ppm in diet) | % Reduction in Fat Pad Weight vs Controls (CFI female mice [1]; 12.5 ppm in diet) | % Change in Body Weight vs controls (CFI female mice [1]; 25 ppm in diet) | % Reduction in Fat Pad Weight vs Controls (CFI female mice [1]; 25 ppm in diet) | Mouse Test Fat Pad Weight % ± Control (CFI female mice [2]; 100 ppm) | Mouse Test Fat Pad Weight % ± Control (CFI female mice [2]; 200 ppm)
CCCC(C)NCC(O)c1cc(F)cc(C#N)c1 (stereo not shown) [drawing 15] | +15.9% | -5.6% | +1.2% | -15.5% | +22.4% | -22.8% |  |  |  |  |  |  |  |  |  |  | 
CCNCC(O)c1cc(F)cc(C#N)c1 (stereo not shown) [drawing 16] | +18.8% | +4.3% | -4.1% | -33.3% | +25.3% | -37.9% |  |  |  |  |  |  |  |  |  |  | 
CC(C)N(CC(O)c1cc(F)cc(C#N)c1)C(C)C (stereo not shown) [drawing 17] |  |  |  |  | +19.05% | -19.36% | -2.38% | -15.39% |  |  |  |  |  |  |  |  | 
CC(C)NCC(O)c1cc(F)cc(C#N)c1 (stereo not shown) [drawing 14] | +78.10% | +9.90% | +56.93% | -17.71% | +88.32% | -33.29% |  |  | +0.73% | +40.88% | +5.91% | +26.28% | -11.76% | +29.20% | +9.76% | -17.7% | -33.3%
